Literature values as cited in patent publication US9192596B2, “Self-emulsifying pharmaceutical compositions of rhein or diacerein” (WOCKHARDT RESEARCH CENTRE, priority 2007, dated 2015).
Counter-ions that a name gives are not always drawn.

Experiments:
[1] = inherent pharmacokinetic property; rhein-glucuronide converted to rhein-9-anthrone in colon
[2] = not given; remark: listed apart in the source

| Compound | soft stool effect expected due to enterohepatic circulation [1] | solubility (water, alcohols, acetone, dichloromethane and chloroform) | pKa [2] | stability ([2]; acidic and alkaline conditions) | solubility in water (EP 243,968) |
| --- | --- | --- | --- | --- | --- |
| CC(=O)Oc1cccc2c1C(=O)c1c(OC(C)=O)cc(C(=O)O)cc1C2=O [diacerein, 4,5-bis(acetyloxy) 9,10-dihydro-4,5-dihydroxy-9,10-dioxo-2-anthracenecarboxylic acid] | 30-40% | practically insoluble | 4.5 | instability under acidic and alkaline conditions |  |
| CC(=O)Oc1cccc2c1C(=O)c1c(OC(C)=O)cc(C(=O)O)cc1C2=O [potassium salt of diacerein] |  |  |  |  | water-soluble |
